In ChEMBL document CHEMBL1177794, “Broad spectrum alkynyl inhibitors of T315I Bcr-Abl” (Bioorg Med Chem Lett, 2010):

Legend:
[1] = target: Serine/threonine-protein kinase ULK3 (Homo sapiens) (UniProt Q6PHR2); assay: Inhibition of ULK3 at 10 uM; conditions: values are per cent of control
[2] = target: Ephrin type-B receptor 2 (Homo sapiens) (UniProt P29323); assay: Inhibition of EPHB2 at 10 uM; values are per cent of control
[3] = target: Cyclin-dependent kinase 2 (Homo sapiens) (UniProt P24941); assay: Inhibition of CDK2 at 10 uM; values are per cent of control
[4] = target: Serine/threonine-protein kinase PknB (Mycobacterium tuberculosis) (UniProt P9WI81); assay: Inhibition of Mycobacterium tuberculosis PKNB at 10 uM
[5] = target: Cyclin-dependent kinase-like 5 (Homo sapiens) (UniProt O76039); assay: Inhibition of CDKL5 at 10 uM; conditions: values are per cent of control
Cyclin-dependent kinase-like 5 (Homo sapiens), sequence (O76039 whole entry): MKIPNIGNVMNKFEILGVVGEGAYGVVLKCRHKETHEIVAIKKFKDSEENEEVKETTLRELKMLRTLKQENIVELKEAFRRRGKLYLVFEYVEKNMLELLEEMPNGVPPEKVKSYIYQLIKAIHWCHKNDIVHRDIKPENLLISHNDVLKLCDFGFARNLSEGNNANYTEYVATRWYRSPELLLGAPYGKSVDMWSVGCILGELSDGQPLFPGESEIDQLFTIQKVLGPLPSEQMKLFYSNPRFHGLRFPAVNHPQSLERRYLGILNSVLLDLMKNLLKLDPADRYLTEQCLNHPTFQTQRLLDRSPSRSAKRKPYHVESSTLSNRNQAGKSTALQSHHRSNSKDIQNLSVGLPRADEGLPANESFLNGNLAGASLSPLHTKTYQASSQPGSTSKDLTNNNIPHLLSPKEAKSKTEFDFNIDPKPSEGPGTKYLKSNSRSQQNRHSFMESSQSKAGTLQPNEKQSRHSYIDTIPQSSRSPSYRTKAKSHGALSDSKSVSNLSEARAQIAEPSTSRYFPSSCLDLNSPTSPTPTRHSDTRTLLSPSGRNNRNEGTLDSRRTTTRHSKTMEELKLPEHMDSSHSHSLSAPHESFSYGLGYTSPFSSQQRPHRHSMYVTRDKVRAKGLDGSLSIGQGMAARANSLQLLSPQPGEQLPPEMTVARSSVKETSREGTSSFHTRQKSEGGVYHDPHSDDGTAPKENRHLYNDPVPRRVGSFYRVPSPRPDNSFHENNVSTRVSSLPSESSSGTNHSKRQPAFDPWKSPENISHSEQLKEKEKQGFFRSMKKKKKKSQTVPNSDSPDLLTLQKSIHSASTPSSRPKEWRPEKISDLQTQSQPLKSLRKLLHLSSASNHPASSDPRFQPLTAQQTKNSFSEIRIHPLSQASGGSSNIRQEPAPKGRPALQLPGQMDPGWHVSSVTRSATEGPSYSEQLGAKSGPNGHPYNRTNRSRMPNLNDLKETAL

[6] = target: Serine/threonine-protein kinase PAK 3 (Homo sapiens) (UniProt O75914); assay: Inhibition of PAK3 at 10 uM; values are per cent of control
[7] = target: Serine/threonine-protein kinase RIO2 (Homo sapiens) (UniProt Q9BVS4); assay: Inhibition of RIOK2 at 10 uM; conditions: values are per cent of control
[8] = target: Receptor tyrosine-protein kinase erbB-2 (Homo sapiens) (UniProt P04626); assay: Inhibition of ERBB2 at 10 uM; values are per cent of control
[9] = target: Serine/threonine-protein kinase MAK (Homo sapiens) (UniProt P20794); assay: Inhibition of MAK at 10 uM; conditions: values are per cent of control
[10] = target: LIM domain kinase 1 (Homo sapiens) (UniProt P53667); assay: Inhibition of LIMK1 at 10 uM; conditions: values are per cent of control
[11] = target: Mitogen-activated protein kinase kinase kinase kinase 3 (Homo sapiens) (UniProt Q8IVH8); assay: Inhibition of MAP4K3 at 10 uM; values are per cent of control
[12] = target: Receptor tyrosine-protein kinase erbB-3 (Homo sapiens) (UniProt P21860); assay: Inhibition of ERBB3 at 10 uM; values are per cent of control
[13] = target: Serine/threonine-protein kinase tousled-like 1 (Homo sapiens) (UniProt Q9UKI8); assay: Inhibition of TLK1 at 10 uM
Serine/threonine-protein kinase tousled-like 1 (Homo sapiens), sequence (Q9UKI8 whole entry): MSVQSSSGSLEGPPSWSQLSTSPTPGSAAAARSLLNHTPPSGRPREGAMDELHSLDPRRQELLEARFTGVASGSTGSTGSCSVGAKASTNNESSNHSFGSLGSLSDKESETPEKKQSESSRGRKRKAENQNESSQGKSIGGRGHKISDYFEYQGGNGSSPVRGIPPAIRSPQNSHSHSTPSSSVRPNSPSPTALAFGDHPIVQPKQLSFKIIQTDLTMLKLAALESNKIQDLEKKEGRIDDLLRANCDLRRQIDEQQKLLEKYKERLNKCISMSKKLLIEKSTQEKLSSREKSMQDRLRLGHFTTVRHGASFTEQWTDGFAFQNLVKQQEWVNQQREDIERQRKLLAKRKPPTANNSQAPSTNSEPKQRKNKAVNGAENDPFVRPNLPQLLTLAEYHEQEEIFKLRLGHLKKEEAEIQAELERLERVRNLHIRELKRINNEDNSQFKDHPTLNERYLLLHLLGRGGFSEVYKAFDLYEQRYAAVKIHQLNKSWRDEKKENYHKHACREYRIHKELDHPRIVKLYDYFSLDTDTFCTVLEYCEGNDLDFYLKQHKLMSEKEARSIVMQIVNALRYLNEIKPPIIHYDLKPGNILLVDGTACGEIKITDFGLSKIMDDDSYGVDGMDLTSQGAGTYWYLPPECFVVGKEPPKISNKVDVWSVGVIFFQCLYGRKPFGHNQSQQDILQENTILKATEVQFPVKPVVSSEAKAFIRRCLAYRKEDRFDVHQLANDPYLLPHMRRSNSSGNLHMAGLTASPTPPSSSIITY

[14] = system: Tyrosine-protein kinase ABL1 (Homo sapiens), P00519 [Q252H]; assay: Inhibition of phosphorylated ABL1 Q252H mutant at 10 uM; conditions: values are per cent of control
[15] = system: Tyrosine-protein kinase ABL1 (Homo sapiens), P00519 [E255K]; assay: Inhibition of phosphorylated ABL1 E255K mutant at 10 uM; conditions: values are per cent of control
[16] = target: Calcium/calmodulin-dependent protein kinase kinase 1 (Homo sapiens) (UniProt Q8N5S9); assay: Inhibition of CAMKK1 at 10 uM; conditions: values are per cent of control
[17] = target: Serine/threonine-protein kinase Nek7 (Homo sapiens) (UniProt Q8TDX7); assay: Inhibition of NEK7 at 10 uM
[18] = system: eIF-2-alpha kinase GCN2 (Homo sapiens), Q9P2K8 [S808G]; assay: Inhibition of GCN2 Domain2 S808G mutant at 10 uM; conditions: values are per cent of control
[19] = system: Mast/stem cell growth factor receptor Kit (Homo sapiens), P10721 [V559D,T670I]; assay: Inhibition of KIT V559D, T670I mutant at 10 uM; conditions: values are per cent of control
[20] = target: Serine/threonine-protein kinase TAO3 (Homo sapiens) (UniProt Q9H2K8); assay: Inhibition of TAOK3 at 10 uM
Serine/threonine-protein kinase TAO3 (Homo sapiens), sequence (Q9H2K8 whole entry): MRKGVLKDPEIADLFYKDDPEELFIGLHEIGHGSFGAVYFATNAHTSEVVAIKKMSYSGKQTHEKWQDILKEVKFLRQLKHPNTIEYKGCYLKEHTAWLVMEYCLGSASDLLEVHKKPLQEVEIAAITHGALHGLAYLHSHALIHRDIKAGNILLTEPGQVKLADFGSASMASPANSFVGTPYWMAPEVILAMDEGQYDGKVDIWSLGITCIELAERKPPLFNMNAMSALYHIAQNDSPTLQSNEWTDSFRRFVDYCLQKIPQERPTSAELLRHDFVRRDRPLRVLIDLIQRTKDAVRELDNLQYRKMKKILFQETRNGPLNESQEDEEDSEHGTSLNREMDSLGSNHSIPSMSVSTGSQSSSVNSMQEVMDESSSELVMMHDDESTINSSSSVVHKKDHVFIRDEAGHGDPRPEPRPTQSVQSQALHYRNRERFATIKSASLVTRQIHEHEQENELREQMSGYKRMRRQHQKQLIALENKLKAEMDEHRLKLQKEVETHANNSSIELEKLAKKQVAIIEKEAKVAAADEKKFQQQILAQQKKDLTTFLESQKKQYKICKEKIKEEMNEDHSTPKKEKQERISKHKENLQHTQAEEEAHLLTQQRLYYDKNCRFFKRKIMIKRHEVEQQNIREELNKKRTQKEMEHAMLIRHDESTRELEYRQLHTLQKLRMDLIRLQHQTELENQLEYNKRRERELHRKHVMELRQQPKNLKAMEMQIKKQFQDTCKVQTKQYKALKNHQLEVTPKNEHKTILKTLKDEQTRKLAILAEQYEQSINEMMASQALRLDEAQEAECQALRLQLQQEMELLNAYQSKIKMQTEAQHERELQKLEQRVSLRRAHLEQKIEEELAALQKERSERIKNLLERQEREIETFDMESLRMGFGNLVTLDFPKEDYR

[21] = target: Serine/threonine-protein kinase RIO3 (Homo sapiens) (UniProt O14730); assay: Inhibition of RIOK3 at 10 uM
[22] = target: Serine/threonine-protein kinase OSR1 (Homo sapiens) (UniProt O95747); assay: Inhibition of OSR1 at 10 uM
[23] = target: Phosphorylase b kinase gamma catalytic chain, liver/testis isoform (Homo sapiens) (UniProt P15735); assay: Inhibition of PHKG2 at 10 uM
Phosphorylase b kinase gamma catalytic chain, liver/testis isoform (Homo sapiens), sequence (P15735 whole entry, canonical isoform): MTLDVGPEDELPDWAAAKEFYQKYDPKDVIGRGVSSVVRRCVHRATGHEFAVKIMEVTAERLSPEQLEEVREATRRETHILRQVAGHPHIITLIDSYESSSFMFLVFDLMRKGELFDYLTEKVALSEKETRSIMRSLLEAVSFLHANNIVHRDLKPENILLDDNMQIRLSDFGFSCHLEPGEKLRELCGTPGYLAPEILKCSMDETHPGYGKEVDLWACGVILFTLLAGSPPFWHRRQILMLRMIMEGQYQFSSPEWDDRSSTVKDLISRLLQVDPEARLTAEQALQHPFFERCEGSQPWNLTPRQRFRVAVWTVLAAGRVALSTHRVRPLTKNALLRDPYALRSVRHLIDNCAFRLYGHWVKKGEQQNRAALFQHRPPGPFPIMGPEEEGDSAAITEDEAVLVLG

[24] = target: Mitogen-activated protein kinase kinase kinase 11 (Homo sapiens) (UniProt Q16584); assay: Inhibition of MLK3 at 10 uM
[25] = target: Ribosomal protein S6 kinase alpha-5 (Homo sapiens) (UniProt O75582); assay: Inhibition of RPS6KA5 N-terminal domain1 at 10 uM
Ribosomal protein S6 kinase alpha-5 (Homo sapiens), sequence (O75582 whole entry, looked up, the tested form may be a part): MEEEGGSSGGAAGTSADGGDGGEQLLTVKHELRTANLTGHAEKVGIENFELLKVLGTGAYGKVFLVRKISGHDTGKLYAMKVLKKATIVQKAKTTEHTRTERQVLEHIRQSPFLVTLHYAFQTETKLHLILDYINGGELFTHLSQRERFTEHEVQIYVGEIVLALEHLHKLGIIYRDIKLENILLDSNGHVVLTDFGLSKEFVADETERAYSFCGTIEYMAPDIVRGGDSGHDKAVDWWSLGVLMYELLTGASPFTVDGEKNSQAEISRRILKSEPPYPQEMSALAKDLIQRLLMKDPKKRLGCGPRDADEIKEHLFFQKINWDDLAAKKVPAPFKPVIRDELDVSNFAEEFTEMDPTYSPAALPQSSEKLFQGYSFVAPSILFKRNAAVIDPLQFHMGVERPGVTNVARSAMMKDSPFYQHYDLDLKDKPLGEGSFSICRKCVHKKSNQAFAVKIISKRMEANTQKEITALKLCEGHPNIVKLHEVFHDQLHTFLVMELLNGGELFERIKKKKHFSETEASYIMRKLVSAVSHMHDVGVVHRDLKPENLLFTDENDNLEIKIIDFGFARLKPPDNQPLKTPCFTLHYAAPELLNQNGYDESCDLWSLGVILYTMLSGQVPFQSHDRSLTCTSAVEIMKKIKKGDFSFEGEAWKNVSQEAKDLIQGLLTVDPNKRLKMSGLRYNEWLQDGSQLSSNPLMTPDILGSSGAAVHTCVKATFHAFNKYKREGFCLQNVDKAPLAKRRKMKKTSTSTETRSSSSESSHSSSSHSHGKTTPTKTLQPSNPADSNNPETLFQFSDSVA

[26] = target: Insulin receptor (Homo sapiens) (UniProt P06213); assay: Inhibition of INSR at 10 uM; conditions: values are per cent of control
[27] = target: Serine/threonine-protein kinase D3 (Homo sapiens) (UniProt O94806); assay: Inhibition of PRKD3 at 10 uM
[28] = target: Rho-associated protein kinase 2 (Homo sapiens) (UniProt O75116); assay: Inhibition of ROCK2 at 10 uM
[29] = target: Activin receptor type-1-like (Homo sapiens) (UniProt P37023); assay: Inhibition of ACVRL1 at 10 uM; conditions: values are per cent of control
BaF3 = assay: Antiproliferative activity against mouse BAF3 cells expressing wild type Bcr-Abl; type: functional, cell-based
[30] = target: STE20-like serine/threonine-protein kinase (Homo sapiens) (UniProt Q9H2G2); assay: Inhibition of SLK at 10 uM
[31] = target: Bone morphogenetic protein receptor type-2 (Homo sapiens) (UniProt Q13873); assay: Inhibition of BMPR2 at 10 uM; values are per cent of control
[32] = target: Casein kinase II subunit alpha' (Homo sapiens) (UniProt P19784); assay: Inhibition of CSNK2A2 at 10 uM; conditions: values are per cent of control
[33] = target: Receptor tyrosine-protein kinase erbB-4 (Homo sapiens) (UniProt Q15303); assay: Inhibition of ERBB4 at 10 uM; values are per cent of control
[34] = system: Tyrosine-protein kinase ABL1 (Homo sapiens), P00519 [F317L]; assay: Inhibition of non phosphorylated ABL1 F317L mutant at 10 uM; conditions: values are per cent of control
[35] = target: Myosin light chain kinase family member 4 (Homo sapiens) (UniProt Q86YV6); assay: Inhibition of MYLK4 at 10 uM
[36] = system: Phosphatidylinositol 4,5-bisphosphate 3-kinase catalytic subunit alpha isoform (Homo sapiens), P42336 [H1047Y]; assay: Inhibition of PIK3CA H1047Y mutant at 10 uM
Phosphatidylinositol 4,5-bisphosphate 3-kinase catalytic subunit alpha isoform (Homo sapiens), P42336 [H1047Y], sequence (P42336 whole entry H1047Y, canonical isoform): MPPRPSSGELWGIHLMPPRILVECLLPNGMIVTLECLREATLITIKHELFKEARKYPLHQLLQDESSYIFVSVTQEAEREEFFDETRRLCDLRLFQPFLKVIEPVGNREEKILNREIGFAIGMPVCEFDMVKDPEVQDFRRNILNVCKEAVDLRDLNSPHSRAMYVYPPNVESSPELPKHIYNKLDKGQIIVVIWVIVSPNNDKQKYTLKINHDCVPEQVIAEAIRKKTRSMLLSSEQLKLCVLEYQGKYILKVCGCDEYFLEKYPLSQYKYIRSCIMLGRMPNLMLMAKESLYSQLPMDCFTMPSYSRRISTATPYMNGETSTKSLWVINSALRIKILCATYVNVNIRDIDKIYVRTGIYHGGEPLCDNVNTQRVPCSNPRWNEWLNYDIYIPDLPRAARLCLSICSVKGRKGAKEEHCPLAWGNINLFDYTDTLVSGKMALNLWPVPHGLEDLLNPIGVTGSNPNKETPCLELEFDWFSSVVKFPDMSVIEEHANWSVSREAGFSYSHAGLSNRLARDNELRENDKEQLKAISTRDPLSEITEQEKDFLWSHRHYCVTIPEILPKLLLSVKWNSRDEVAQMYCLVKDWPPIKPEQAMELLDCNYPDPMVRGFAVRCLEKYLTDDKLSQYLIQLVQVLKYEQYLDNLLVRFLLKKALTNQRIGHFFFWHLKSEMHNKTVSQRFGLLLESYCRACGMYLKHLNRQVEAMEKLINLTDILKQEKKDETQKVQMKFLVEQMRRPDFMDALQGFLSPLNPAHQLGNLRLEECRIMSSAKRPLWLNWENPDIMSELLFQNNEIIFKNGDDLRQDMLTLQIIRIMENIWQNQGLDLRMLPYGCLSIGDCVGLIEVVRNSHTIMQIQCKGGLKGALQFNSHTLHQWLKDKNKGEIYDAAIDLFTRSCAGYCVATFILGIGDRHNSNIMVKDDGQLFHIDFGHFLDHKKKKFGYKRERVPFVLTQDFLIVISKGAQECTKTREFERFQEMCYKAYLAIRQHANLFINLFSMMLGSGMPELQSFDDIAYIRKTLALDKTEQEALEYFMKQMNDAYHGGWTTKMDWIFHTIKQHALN

[37] = target: RAF proto-oncogene serine/threonine-protein kinase (Homo sapiens) (UniProt P04049); assay: Inhibition of RAF1 at 10 uM; conditions: values are per cent of control
[38] = target: Mitogen-activated protein kinase kinase kinase 9 (Homo sapiens) (UniProt P80192); assay: Inhibition of MLK1 at 10 uM
[39] = target: Tyrosine-protein kinase Lck (Homo sapiens) (UniProt P06239); assay: Inhibition of LCK at 10 uM; values are per cent of control
[40] = target: Serine/threonine-protein kinase Nek9 (Homo sapiens) (UniProt Q8TD19); assay: Inhibition of NEK9 at 10 uM
[41] = target: BDNF/NT-3 growth factors receptor (Homo sapiens) (UniProt Q16620); assay: Inhibition of TRKB at 10 uM; conditions: values are per cent of control

CCN1CCN(Cc2ccc(NC(=O)c3ccc(C)c(C#Cc4cccnc4)c3)cc2C(F)(F)F)CC1
residual binding, % of control [1]: 0.25% | level, % of control [2]: 0.1% | level, % of control [3]: 10% | inhibition [4]: 87% | residual binding, % of control [5]: 12% | % of control [6]: 3.3% | residual binding, % of control [7]: 0.5% | level, % of control [8]: 0.5% | residual binding, % of control [9]: 9% | residual binding, % of control [10]: 3% | level, % of control [11]: 2.6% | level, % of control [12]: 100% | inhibition [13]: 93% | residual binding, % of control [14]: 0.7% | residual binding, % of control [15]: 0.05% | residual binding, % of control [16]: 53% | inhibition [17]: 88% | residual binding, % of control [18]: 1.3% | residual binding, % of control [19]: 0% | inhibition [20]: 0% | inhibition [21]: 70% | inhibition [22]: 48% | inhibition [23]: 92% | inhibition [24]: 17% | inhibition [25]: 59% | residual binding, % of control [26]: 58% | inhibition [27]: 22% | inhibition [28]: 19% | residual binding, % of control [29]: 100% | EC50 (BaF3): < 1 nM | inhibition [30]: 0.1% | level, % of control [31]: 70% | residual binding, % of control [32]: 94% | level, % of control [33]: 1.8% | residual binding, % of control [34]: 0% | inhibition [35]: 68% | inhibition [36]: 81% | residual binding, % of control [37]: 0.5% | inhibition [38]: 43% | level, % of control [39]: 0.05% | inhibition [40]: 41% | residual binding, % of control [41]: 1.6%

CCN1CCN(Cc2ccc(NC(=O)c3ccc(C)c(C#Cc4cnc5[nH]ccc5c4)c3)cc2C(F)(F)F)CC1
residual binding, % of control [1]: 0.25% | level, % of control [2]: 0.6% | level, % of control [3]: 13% | inhibition [4]: 98% | residual binding, % of control [5]: 28% | % of control [6]: 1.1% | residual binding, % of control [7]: 2% | level, % of control [8]: 0.3% | residual binding, % of control [9]: 61% | residual binding, % of control [10]: 1.2% | level, % of control [11]: 1.8% | level, % of control [12]: 89% | inhibition [13]: 93% | residual binding, % of control [14]: 0.2% | residual binding, % of control [15]: 0.2% | residual binding, % of control [16]: 69% | inhibition [17]: 50% | residual binding, % of control [18]: 0.25% | residual binding, % of control [19]: 0% | inhibition [20]: 0% | inhibition [21]: 38% | inhibition [22]: 60% | inhibition [23]: 100% | inhibition [24]: 3% | inhibition [25]: 20% | residual binding, % of control [26]: 53% | inhibition [27]: 6.4% | inhibition [28]: 18% | residual binding, % of control [29]: 100% | EC50 (BaF3): < 1 nM | inhibition [30]: 0.3% | level, % of control [31]: 61% | residual binding, % of control [32]: 78% | level, % of control [33]: 0.1% | residual binding, % of control [34]: 0% | inhibition [35]: 40% | inhibition [36]: 82% | residual binding, % of control [37]: 0.95% | inhibition [38]: 1.7% | level, % of control [39]: 0.1% | inhibition [40]: 12% | residual binding, % of control [41]: 2%
